The source of these data is patent US20060046999A1, “Monocyclic aroylpyridinones as antiinflammatory agents” (priority 2002, published 2006).

Sequence of p38 map kinase (Q16539 whole entry): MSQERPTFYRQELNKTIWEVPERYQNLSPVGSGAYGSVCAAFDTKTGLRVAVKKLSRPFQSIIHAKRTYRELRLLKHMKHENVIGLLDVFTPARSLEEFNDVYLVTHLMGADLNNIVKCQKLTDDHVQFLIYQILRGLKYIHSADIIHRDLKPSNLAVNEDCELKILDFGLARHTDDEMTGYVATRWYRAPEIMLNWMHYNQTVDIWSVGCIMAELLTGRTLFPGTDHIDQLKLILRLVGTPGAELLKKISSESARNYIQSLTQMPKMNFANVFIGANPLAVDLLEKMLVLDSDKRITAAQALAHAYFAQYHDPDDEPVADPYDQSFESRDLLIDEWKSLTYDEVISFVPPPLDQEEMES

This assay concerns the target p38 map kinase (Homo sapiens, UniProt Q16539). In words: p38 map kinase SPA [33P] assay. The assay is classed as biochemical. The note with it: 10 μM ATP, 2.5 μM biotinylated MBP substrate, 90 min at 30° C. From the text:
The assay makes use of the serine/threonine protein kinase SPA [^33P]-assay kit from Amersham Pharmacia Biotech. The assay is a homogeneous technique using SPA technology for the quantification of serine threonine kinase activity.
It is based on the p38 map kinase catalysed transfer of the γ-phosphate group of the [γ-^33P]-ATP to the substrate, biotinylated myelin basic protein (MBP). The resulting [^33P]-labelled biotinylated product is trapped on a PVT SPA bead containing scintillant which has been surface coated with streptavidin.
The beads are allowed to settle to eliminate high background, and therefore only ^33P_labelled product attached to the SPA bead is detected.
The assay is carried out in the presence and absence of test compounds to determine their effect on p38 map kinase activity.
A Test Protocol is as Follows:
• 1. SPA assay kit (Amersham). Components: • Assay buffer (store frozen) • Stop solution (store frozen) • Streptavidin coated SPA beads—reconstitute with 5 ml of PBS (50 mg/ml) (store in fridge) • 2. p38 map kinase enzyme (500 μg/ml)—aliquoted in 1.5 ml • dilute 1:10 to 50 μg/ml • 1 plate: 110 μl (stock 500 μg/ml)+990 μl PBS. • 3. Assay reagent: • for 1 plate: 504 μl assay buffer [500 mM MOPS pH 7.2, 10 μM ATP, 50 mM MgCl2, 25 μM biotinylated myelin basic protein (MBP)] • 2513.4 μl water • 1.1 μl [^33P]-ATP (10 μCi/μl) (on activity date/adjust for activity date) • 4.534 μl X10-2M ATP in water • 4. Stop solution: • for 1 plate: 265.92 μl streptavidin coated beads (50 mg/ml) • 1651.68 μl stop buffer (500 μM ATP, 50 mM EDTA, 1% Triton X-100) • 7084.32 μl PBS. • 1. Add 10 μl compound dilutions (5× final conc.) to test wells • 2. Add 10 μl 12.5% DMSO to control/blank wells • 3. Add 10 μl enzyme (50 μg/ml)—final conc. 500 ng/well • 4. Add 10 μl PBS to blank wells • 5. Add 30 μl of assay reagent to each well (final conc. 10 μM ATP, 2.5 μM substrate) • 6. Mix well on plate shaker • 7. Incubate 90 min (30° C.) • 8. Add 75 μl of stop solution to each well (final conc. 55 μM ATP) • 9. Spin plate: 3 min/1600 rpm/20° C. (alternatively leave to settle overnight) • 10. Read in Microbeta, Protocol SPA paralux 3.
What is called IC50 is the midpoint of a concentration-inhibition curve. Low readings indicate greater potency, high ones weaker potency. On to `O=C(c1ccccc1)c1ccc(=O)n(Cc2ccccc2)c1NCc1ccccc1` [Example 2, 5-Benzoyl-1-benzyl-6-(benzylamino)-2(1H)-pyridinone], for which the IC50 stood at 325 nM.

In the case of `COc1ccc(-n2c(N)c(C(=O)c3ccccc3)ccc2=O)cc1` [Example 4, 6-Amino-5-benzoyl-1-(4-methoxyphenyl)-2(1H)-pyridinone], half-maximal inhibition (IC50) was put at 299 nM.

`O=C(c1ccccc1)c1ccc(=O)[nH]c1NC1CCCCC1` [Example 5, 5-Benzoyl-6-(cyclohexylamino)-2(1H)-pyridinone] registered a half-inhibitory concentration (IC50) of 1290 nM.

`Nc1c(C(=O)c2ccccc2)ccc(=O)n1-c1ccccc1` [Example 6, 6-Amino-5-benzoyl-1-phenyl-2(1H)-pyridinone] had an IC50 of 202 nM. This IC50 lies about 6.4-fold lower than the previous one.

In turn, `Cc1ccc(-n2c(N)c(C(=O)c3ccccc3)ccc2=O)cc1` [Example 9, 6-amino-5-benzoyl-1-(4-methylphenyl)-2(1H)-pyridinone] returned an IC50 of 209 nM.

Compound `CC(C)C(Nc1c(C(=O)c2ccccc2)ccc(=O)n1C)C(C)C` [Example 14, 5-Benzoyl-6-[(1-isopropyl-2-methylpropyl)amino]-1-methyl-2(1H)-pyridinone] returned an IC50 of 1880 nM.

As for `O=C(c1ccccc1)c1ccc(=O)[nH]c1NCC1CCCCC1` [Example 15, 5-Benzoyl-6-[(cyclohexylmethyl)amino]-2(1H)-pyridinone], the IC50 was 4050 nM. This IC50 is about 2.2-fold higher than that of the compound before.

On to `COc1ccc(-n2c(N)c(C(=O)c3ccc(F)cc3)ccc2=O)c(OC)c1` [Example 20, 6-Amino-1-(2,4-dimethoxyphenyl)-5-(4-fluorobenzoyl)-2(1H)-pyridinone], for which the IC50 came out at 127 nM.
